Test results: patent publication US7485647B2, “2-aminoquinoline derivatives” (Banyu Pharmaceutical Co., Ltd., priority 2003, dated 2009)

What follows are compounds tested against T1, human MCH-1R (Homo sapiens, UniProt Q99705) (assay: MCH binding inhibition test). Settings: membranes of MCH-1R expressing CHO-K1 cells, 50 pM [125I]MCH, 25° C., one hour; read-out: IC50 (50% inhibition concentration to specific [125I]MCH binding).
T1 construct: expressed in transfected cells; host or cells: CHO-K1 (American Type Culture Collection)
T1 sequence (Q99705 whole entry): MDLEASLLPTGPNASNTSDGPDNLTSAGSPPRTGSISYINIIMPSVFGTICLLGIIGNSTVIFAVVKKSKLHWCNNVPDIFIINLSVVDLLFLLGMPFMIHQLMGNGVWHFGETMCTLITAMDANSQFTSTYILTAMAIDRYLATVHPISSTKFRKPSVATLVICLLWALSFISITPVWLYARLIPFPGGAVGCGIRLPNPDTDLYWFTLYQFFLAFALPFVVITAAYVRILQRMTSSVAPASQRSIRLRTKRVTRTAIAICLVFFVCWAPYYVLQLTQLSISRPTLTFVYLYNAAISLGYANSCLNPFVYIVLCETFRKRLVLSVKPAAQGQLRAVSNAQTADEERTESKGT
Description: A human MCH-1R encoding cDNA sequence [FEBS Letters, Vol. 398, p. 253 (1996); Biochimica et Biophisica Acta, Vol. 1401, p. 216 (1998)] was cloned to plasmid vector pEF/mic/cyto (Invitrogen Corporation). The obtained expression vector was transfected to a host cell CHO-K1 (American Type Culture Collection) using lipofectamine plus reagent (Life Technology Inc.) to provide MCH-1R expression cells.
Membrane samples prepared from the MCH-1R expression cells were incubated with each test compound and 50 pM of [^125I]MCH (NEN Co.), in an assay buffer (50 mM Tris buffer comprising 10 mM magnesium chloride, 2 mM ethylenediamine tetraacetate, 0.01% bacitracin and 0.2% bovine serum albumin; pH 7.4) at 25° C. for an hour, followed by filtration through Glass Filter GF/C (Wattman Co.). After washing the glass filter with 50 mM Tris buffer (pH7.4) comprising 10 mM magnesium chloride, 2 mM ethylenediamine tetraacetate and 0.04% Tween-20, radio activity on the glass filter was measured. Non-specific binding was measured in the presence of 1 μM human MCH and 50% inhibition concentration (IC50 value) of each test compound to specific [^125I] MCH binding was determined.

IC50 [nM]	Compound
8	CN1C(=O)CCC12CCN(c1ccc3cc(NC(=O)c4ncc(-c5ccc(F)cc5)cn4)ccc3n1)C2 (stereo not drawn) [Example 1, 5-(4-Fluorophenyl)-N-[2-(1-methyl-2-oxo-1,7-diazaspiro[4,4]-nonan-7-yl)-6-quinolinyl]-2-pyrimidinecarboxamide]
4.1	CC(C)C(=O)N(C)[C@@H]1CCN(c2ccc3cc(NC(=O)c4ncc(-c5ccccc5)cn4)ccc3n2)C1 [Example 3, N-(2-[(3R)-3-[isobutyryl(methyl)amino]-1-pyrrolidinyl]-6-quinolinyl)-5-phenyl-2-pyrimidinecarboxamide]
3.7	CN(C)C(=O)N(C)[C@@H]1CCN(c2ccc3cc(NC(=O)c4ncc(-c5ccccc5)cn4)ccc3n2)C1 [Example 9, N-(2-[(3R)-3-[[(dimethylamino)carbonyl](methyl)amino]-1-pyrrolidinyl]-6-quinolinyl)-5-phenyl-2-pyrimidinecarboxamide]
